According to US8148392B2, “2-indolyl imidazo [4,5-d] phenanthroline derivatives and their use in the treatment of cancer” (Lorus Therapeutics Inc., priority 2005, dated 2012):
pIC50: −log10 of the molar value. Read-outs that look alike come from different tables or passages of the source.

Assays:
CCRF-CEM leukemia cells = assay: XTT cell proliferation assay, CCRF-CEM; assay type: cell-based, human; conditions: read-out: IC50 (cell growth inhibition)
Protocol: (§1) Cell growth inhibition IC50 (μM) by compounds of Formula I was tested on various cancer cell types by XTT cell proliferation assay. The growth inhibitory effects of the compounds of Formula I as shown below for the melanoma cell line SK-MEL-2 were reproducible by Lorus Therapeutics Inc.

[1] = system: PC-3 prostate cancer cells; assay: XTT cell proliferation assay, PC-3; assay type: cell-based, human; conditions: read-out: IC50 (cell growth inhibition)
Protocol: as §1

KLF4 [2] = assay: KLF4 gene expression by RT-PCR, MDA-MB-435; assay type: cell-based, human; conditions: MDA-MB-435, relative to vehicle control as 1
Text: (§2) Gene expression levels of KLF4, induced by compounds of Formula I, were also examined on various cancer cell types by RT-PCR. Fold changes in KLF4 in compound-treated cells were expressed relative to KLF4 expression in vehicle control-treated cells of respective cell type as “1”. […] Additionally, xenografts of MDA-MB-435 implanted into mammary fat pads of female SCID mice have shown immunohistochemical staining consistent with melanocytic origin (Ellison G, Klinowska T, Westwood R F, Docter E, French T, Fox J C. (2002) Mol Pathol. 55(5): 294-299). The breast cancer cell line MDA-MB-435 may be expected to function differently than the other breast cancer cell lines.

[3] = system: MDA-MB-231 breast cancer cells; assay: XTT cell proliferation assay, MDA-MB-231; assay type: cell-based, human; conditions: read-out: IC50 (cell growth inhibition)
Protocol: as §1

KLF4 [4] = assay: KLF4 gene expression by RT-PCR, H-460; assay type: cell-based, human; conditions: H-460, relative to vehicle control as 1
Text: as §2
Expressions of KLF2, 4 and 6 genes in H-460 cells, treated with vehicle control or 2.5 μM compound 3 or compound 7, were measured by RT-PCR. Gene expression was presented relative to respective gene expression in vehicle control-treated group as “1”.

[5] = system: human colon carcinoma HT-29 cells; assay: XTT cell proliferation assay, HT-29; assay type: cell-based; conditions: for IC50: HT-29, XTT, as Example 13, Table 7; for pIC50: HT-29 colon, Table 8, read-out: IC50 (cell growth inhibition)
Summary of the method: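 HT-29 cells in McCoy's 5A with 10% FBS, 37° C., 5% CO2, exposed to varying compound concentrations for 6-7 days. Viable cells quantified by XTT reduction to formazan; growth inhibition expressed as IC50 (μM).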

[6] = system: DU-145 prostate cancer cells; assay: XTT cell proliferation assay, DU-145; assay type: cell-based, human; conditions: read-out: IC50 (cell growth inhibition)
Protocol: as §1

KLF4 [7] = assay: KLF4 gene expression by RT-PCR, MOLT-4; assay type: cell-based, human; conditions: MOLT-4, relative to vehicle control as 1
Text: as §2

KLF4 [8] = assay: KLF4 gene expression by RT-PCR, MDA-MB-231; assay type: cell-based, human; conditions: MDA-MB-231, relative to vehicle control as 1
Text: as §2

H-460 lung cancer cells = assay: XTT cell proliferation assay, H-460; assay type: cell-based, human; conditions: read-out: IC50 (cell growth inhibition)
Protocol: as §1

KLF4 [9] = assay: KLF4 gene expression by RT-PCR, DU-145; assay type: cell-based, human; conditions: DU-145, relative to vehicle control as 1
Text: as §2

KLF4 [10] = assay: KLF4 gene expression by RT-PCR, HT-29; assay type: cell-based, human; conditions: HT-29, relative to vehicle control as 1
Protocol: (§3) To determine whether compounds of Formula I can chelate zinc in cells, the effect of compound 3 on the expression level of a zinc-regulated gene, metallothionein 1A (MT1A), in human colon carcinoma HT-29 cells, was determined. HT-29 cells, 1×10^6 cells in 10 mL volume of the growth medium were seeded in 100 mm dishes and incubated overnight at 37° C. The medium was removed and replaced with the growth medium containing 35 μM ZnCl2, 1 μM or 4 μM TPEN (NNNN-tetrakis(2-pyridyl-methyl)ethylenediamine), or 1 μM or 4 μM compound 3, or 0.1% DMSO vehicle control. After incubation for 16 hours, the cells were detached by trypsinization, collected by centrifugation and washed once with PBS. Total RNA was extracted by using TRIZOL (Invitrogen, Life Technologies, Carlsbad, Calif.), following manufacturer's instruction, and the level of MT1A mRNA was measured by real time PCR using the comparative CT method as follows. First strand cDNA was synthesized from 200 ng total RNA in Biometra Tpersonal Thermal Cycler (Abgene, UK), using pd(N)6 random hexamer (Amersham Biosciences, Piscataway, N.J.) and SuperScript™ II Reverse Transcriptase kit (Invitrogen) by following manufacturer's protocol. Real-time PCR was performed in ABI Prism 7000 Sequence Detection System (Applied Biosystems Inc., ABI, Foster City, Calif.), using 5 μL of cDNA synthesized by above-mentioned procedure and respective TaqMan® Gene Expression Assays (ABI) by following ABI TaqMan® Universal PCR master mix protocol.
The ability of compounds of Formula I to modulate the mRNA level of a transition metal-regulated tumour suppressor gene was determined in vitro as follows. Compound 3 was tested to determine its ability to increase the expression of zinc-regulated tumour suppressor KLF4 mRNA in colon carcinoma HT-29 cells. […] HT-29 cells were incubated for 16 hours with DMSO as a vehicle control, 35 μM ZnCl2, 1 μM or 4 μM of compound 3, or 1 μM or 4 μM TPEN for 16 hours and mRNA was extracted from the cells as described in Example 19. The expression of KLF4 mRNA was analyzed by real-time polymerase chain reaction using the comparative CT method also as described in Example 19. Compound 3 induced the expression of KLF4 mRNA (approximately 8-fold) in HT-29 cells compared with HT-29 cells treated with vehicle alone (See FIG. 8).
as §2
The change in gene expression of KLF4 upon zinc depletion following compound 3 treatment was determined by RT-PCR as follows. HT-29 cells were treated with 1 μM compound 3 for the indicated time (FIG. 39A) or HT-29 cells were treated with 1 μM compound 3, 35 μM ZnCl2 or compund 3 and ZnCl2 together for 16 hr (FIG. 39B). Total RNA was extracted and gene expression level was determined by RT-PCR.
Fold change in KLF4 gene expression was presented relative to KLF4 expression in non-specific siRNA-transfected cells treated with vehicle control.

KLF4 [11] = assay: KLF4 gene expression by RT-PCR, SK-MEL-2; assay type: cell-based, human; conditions: SK-MEL-2, relative to vehicle control as 1
Text: as §2

KLF4 [12] = assay: KLF4 gene expression by RT-PCR, HCT-116; assay type: cell-based, human; conditions: HCT-116, relative to vehicle control as 1
Text: as §2

KLF4 [13] = assay: KLF4 gene expression by RT-PCR, CCRF-CEM; assay type: cell-based, human; conditions: relative to vehicle control as 1
Text: as §2

KLF4 [14] = assay: KLF4 gene expression by RT-PCR, PC-3; assay type: cell-based, human; conditions: PC-3, relative to vehicle control as 1
Text: as §2

[15] = system: HCT-116 colon cancer cells; assay: XTT cell proliferation assay, HCT-116; assay type: cell-based, human; conditions: read-out: IC50 (cell growth inhibition)
Protocol: as §1

MOLT-4 leukemia cells = assay: XTT cell proliferation assay, MOLT-4; assay type: cell-based, human; conditions: read-out: IC50 (cell growth inhibition)
Protocol: as §1

[16] = system: MDA-MB-435 breast cancer cells; assay: XTT cell proliferation assay, MDA-MB-435; assay type: cell-based, human; conditions: read-out: IC50 (cell growth inhibition)
Protocol: as §1

SK-MEL-2 melanoma cells = assay: XTT cell proliferation assay, SK-MEL-2; assay type: cell-based, human; conditions: read-out: IC50 (cell growth inhibition)
Protocol: as §1

[17] = system: metallothionein 1A (MT1A); assay: Metallothionein 1A (MT1A) mRNA expression in HT-29 cells, real time PCR; assay type: cell-based, human; conditions: HT-29, versus DMSO control, in words
Protocol: as §3
The effect of compound 3 and compound 7 treatment on the expressions of a zinc-storage protein meallothionein 1A (MT1A) (FIG. 29A), a copper transporter, Ctrl also known as SLC31A1 (FIG. 29B) and an iron transporter; transferrin receptor 1 (TfR1) (FIG. 29C) were measured and compared with a known zinc chelator TPEN, a copper chelator tetramine and an iron chelator DFO, respectively. Despite in vitro chelation of Cu^+2, increase in copper-sensitive gene after compound 3 treatment was transient.
HT-29 cells were treated with 1 μM compound 3 for the indicated time and MT1A gene expression was measured as follows. Total RNA was extracted using TRIZOL method and gene expression level was determined by quantitative reverse-transcription polymerase chain reaction (RT-PCR). MT1A gene expression was normalized with β-actin gene expression in the same sample. Fold change in MT1A was expressed relative to MT1A level of DMSO control at respective time points.
To verify that the MT1A gene expression reflected the intracellular zinc level, HT-29 cells were treated with 1 μM compound 3, 35 μM ZnCl2 or compound 3 and ZnCl2 together for 16 hr (FIG. 38B). MT1A gene expression was determined by RT-PCR as described above. MT1A gene expression was elevated in response to increased intracellular zinc ions in ZnCl2-treated cells.
The ability of compounds of Formula I to modulate gene expression of MT1A (FIG. 55A), MTF-1 (FIG. 55B), Cyclin D1 (FIG. 55C) and KLF4 (FIG. 55D) was determined by RT-PCR. HT-29 cells were treated with 1 μM compound 3 or compound 7, 35 μM ZnCl2, compound 3 and ZnCl2 together, or compound 7 and ZnCl2 together for 8 to 16 hr. The respective gene expression was normalized with β-actin gene expression in the same sample. Fold change in gene expression was expressed relative to the respective gene level of DMSO control.
The effect of compound 3 and compound 64 on gene expression changes in MT1A (FIG. 57A), MTF-1 (FIG. 57B), Cyclin D1 (FIG. 57C) and KLF4 (FIG. 57D) in HT-29 cells was determined by RT-PCR. HT-29 cells were treated with 1 μM compound 3 or compound 64, 35 μM ZnCl2, compound 3 and ZnCl2 together, or compound 64 and ZnCl2 together for 8 to 16 hr. The respective gene expression was normalized with β-actin gene expression in the same sample. Fold change in gene expression was expressed relative to the respective gene level of DMSO control.

[18] = system: intracellular zinc ions in HT-29 cells; assay: Chelation of intracellular zinc in HT-29 cells, Zinquin fluorescence; assay type: cell-based, human; conditions: HT-29 with or without pre-loading with 35 μM ZnCl2, 30 min
Protocol: To determine the chelation property of compound 3 with intracellular zinc ions, HT-29 cells, with or without pre-loaded with 35 μM ZnCl2 were treated with compound 3, a known zinc chelator TPEN or vehicle control (DMSO), and intracellular free zinc was determined by measuring Zinquin fluorescence as described in the preceding Example (FIG. 37). HT-29 cells (4×10^5 cells/group) were pre-treated with 35 μM ZnCl2 for 20 min, followed by addition of indicated concentrations of compound 3 or TPEN and 10 μM Zinquin for 30 min at 37° C., and the fluorescence count was measured (FIG. 37A). For measurement of chelation of endogenous zinc ions in HT-29 cells, HT-29 cells (1.5×10^6 cells/group) were treated with indicated concentrations of compound 3 and 10 μM Zinquin for 30 min at 37° C., and the fluorescence count was measured (FIG. 37B).

Structure (SMILES) | pIC50 (CCRF-CEM leukemia cells) | pIC50 [1] | KLF4 (gene fold increase) (KLF4 [2]) [fold] | pIC50 [3] | KLF4 (gene fold increase) (KLF4 [4]) [fold] | IC50 [5] [µg/mL] | pIC50 [5] | pIC50 [6] | KLF4 (gene fold increase) (KLF4 [7]) [fold] | KLF4 (gene fold increase) (KLF4 [8]) [fold] | pIC50 (H-460 lung cancer cells) | KLF4 (gene fold increase) (KLF4 [9]) [fold] | KLF4 (gene fold increase) (KLF4 [10]) [fold] | KLF4 (gene fold increase) (KLF4 [11]) [fold] | KLF4 (gene fold increase) (KLF4 [12]) [fold] | KLF4 (gene fold increase) (KLF4 [13]) [fold] | KLF4 (gene fold increase) (KLF4 [14]) [fold] | pIC50 [15] | pIC50 (MOLT-4 leukemia cells) | pIC50 [16] | also measured
Cc1ccc2[nH]c(C34CC5CC(CC(C5)C3)C4)c(-c3nc4c5cccnc5c5ncccc5c4[nH]3)c2c1 [Compound 69] | 6.70 | 6.47 | 8.91 | 5.48 | 1.95 | 0.2 | 6.70 | 6.40 | 276.28 | 1.61 | 6.40 | 7.46 | 6.54 | 4 | 3.11 | 74.29 | 0.95 | 6.80 | 6.70 | 6.22 | pIC50 (SK-MEL-2 melanoma cells): 6.74
c1ccc(CN(CCN(Cc2ccccn2)Cc2ccccn2)Cc2ccccn2)nc1 [TPEN, NNNN-tetrakis(2-pyridyl-methyl)ethylenediamine, reference compound] |  |  |  |  |  |  |  |  |  |  |  |  |  |  |  |  |  |  |  |  | MT1A gene expression, change [17]: decreased the expression of MT1A; intracellular free zinc (Zinquin fluorescence) [18]: Dose-dependent decrease in both pre-loaded zinc and endogenous zinc levels
CC(C)(C)c1ccc2[nH]c(C(C)(C)C)c(-c3nc4c5cccnc5c5ncccc5c4[nH]3)c2c1 [Compound 63] | 6.52 | 6.49 | 7.67 | 5.43 | 1.55 | 0.2 | 6.70 | 6.40 | 223.63 | 1.77 | 6.40 | 12.95 | 5.98 | 5.46 | 2.82 | 76.37 | 1.34 | 6.52 | 6.70 | 6.30 | pIC50 (SK-MEL-2 melanoma cells): 6.77
